Source: US20230210802A1, “COMPOSITION FOR RELIEVING HANGOVER AND IMPROVING LIVER FUNCTION” (Zefit Inc., priority 2022, published 2023)

Test system: zebrafish model showing an anesthetic effect by acute alcohol treatment
Test: Movement distance of zebrafish model with acute alcohol treatment (total distance, video tracking 20 minutes)
Format: in vivo
Settings: zebrafish larvae 7 dpf, ETOH 2%, omega-3 1.4 mg/L, B2 0.2 mg/L, B3 0.5 mg/L, values converted from FIG. 4
Experimental: First, each of omega-3 fatty acid (1.4 mg/L), riboflavin (vitamin B2) (0.2 mg/L), and nicotinamide (vitamin B3) (0.5 mg/L) was dissolved in E3 media to prepare a pre-treatment solution. A mixture of omega-3 fatty acid (1.4 mg/L), riboflavin (vitamin B2) (0.2 mg/L), and nicotinamide (vitamin B3) (0.5 mg/L) was dissolved in E3 media to prepare a pre-treatment solution. Each of omega-3 fatty acid (1.4 mg/L), riboflavin (vitamin B2) (0.2 mg/L), and nicotinamide (vitamin B3) (0.5 mg/L) was dissolved in ETOH 2% (in E3 media) to prepare a post-treatment solution. A mixture of omega-3 fatty acid (1.4 mg/L), riboflavin (vitamin B2) (0.2 mg/L), and nicotinamide (vitamin B3) (0.5 mg/L) was dissolved in ETOH 2% (in E3 media) to prepare a post-treatment solution. Zebrafish larvae at 7 days post-fertilization (dpf) were exposed in water to 200 μl/well of the pre-treatment solution for each group (n=20/group) in a 96-well plate for 1 hour. 1 zebrafish larva was in each well. After 1 hour of pre-treatment, the pre-treatment solution was replaced with 200 μl/well of the post-treatment solution for each group, followed by exposure in water. Subsequently, the behaviors of the zebrafish larvae were recorded for 20 minutes. After recording, the cumulative distances for each section (0-5 min, 5-10 min, 10-15 min, and 15-20 min) of the normal control and the experimental groups were analyzed, and the results thereof are shown in FIGS. 1 and 2. […]
Particularly, the behaviors of zebrafish larvae were recorded for 20 minutes, and after recording, the total distance for an experiment time of 20 minutes of each of the normal control and the experimental groups was analyzed, and the results thereof are shown in FIG. 4. […]

Row | Compound | Average value of total movement distance [mm]
1 | omega-3 fatty acid [ETOH + Omega-3 fatty acid] | 399.3
2 | riboflavin [ETOH + B2] | 223.97
3 | NC(=O)c1cccnc1 [ETOH + B3, nicotinamide] | 77.39
